How the values were obtained:
[1] = biological target: Carbonic anhydrase 2 (Homo sapiens, UniProt P00918); test: DRUGMATRIX: Carbonic Anhydrase II enzyme inhibition (substrate: 4-Nitrophenyl acetate (4-NPA)); format: tissue-based; details: erythrocyte; Not Active = under 50% inhibition at 10 µM
[2] = biological target: Aldo-keto reductase family 1 member B1 (Rattus norvegicus, UniProt P07943); format: tissue-based, Lens of camera-type eye;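 also: inhibition of aldose reductase enzyme activity, measured with DL-glyceraldehyde as the substrate; in other assays of this panel Not Active means under 50% inhibition at 10 µM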
[3] = biological target: Protein phosphatase 3 catalytic subunit alpha (Homo sapiens, UniProt Q08209); parameters: species or system Escherichia coli;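 also: inhibition of calcineurin (PP2B) enzyme activity, measured with DiFMUP as the substrate; in other assays of this panel Not Active means under 50% inhibition at 10 µM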
[4] = biological target: Nitric oxide synthase 1 (Rattus norvegicus, UniProt P29476); format: tissue-based, Cerebellum; also: in other assays of this panel Not Active means under 50% inhibition at 10 µM
[5] = biological target: T1, C-X-C chemokine receptor type 1 (Homo sapiens, UniProt P25024); also: in other assays of this panel Not Active means under 50% inhibition at 10 µM
T1 sequence (P25024 whole entry): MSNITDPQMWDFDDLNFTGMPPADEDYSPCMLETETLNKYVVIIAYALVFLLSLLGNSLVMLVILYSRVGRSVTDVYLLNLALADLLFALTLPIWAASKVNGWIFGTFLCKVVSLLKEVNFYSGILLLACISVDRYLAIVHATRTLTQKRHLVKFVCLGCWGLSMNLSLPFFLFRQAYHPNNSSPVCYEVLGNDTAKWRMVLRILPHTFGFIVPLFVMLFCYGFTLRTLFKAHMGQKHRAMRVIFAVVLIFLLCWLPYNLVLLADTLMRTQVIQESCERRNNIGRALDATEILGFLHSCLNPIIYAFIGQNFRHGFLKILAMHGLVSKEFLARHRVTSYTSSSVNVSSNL

[6] = biological target: Protein kinase C alpha type (Homo sapiens, UniProt P17252); format: cell-based; details: sf9
[7] = biological target: T2, Muscarinic acetylcholine receptor M5 (Homo sapiens, UniProt P08912); format: cell membranes, CHO-K1, Membrane; details: cho-k1; also: in other assays of this panel Not Active means under 50% inhibition at 10 µM
T2 sequence (P08912 whole entry): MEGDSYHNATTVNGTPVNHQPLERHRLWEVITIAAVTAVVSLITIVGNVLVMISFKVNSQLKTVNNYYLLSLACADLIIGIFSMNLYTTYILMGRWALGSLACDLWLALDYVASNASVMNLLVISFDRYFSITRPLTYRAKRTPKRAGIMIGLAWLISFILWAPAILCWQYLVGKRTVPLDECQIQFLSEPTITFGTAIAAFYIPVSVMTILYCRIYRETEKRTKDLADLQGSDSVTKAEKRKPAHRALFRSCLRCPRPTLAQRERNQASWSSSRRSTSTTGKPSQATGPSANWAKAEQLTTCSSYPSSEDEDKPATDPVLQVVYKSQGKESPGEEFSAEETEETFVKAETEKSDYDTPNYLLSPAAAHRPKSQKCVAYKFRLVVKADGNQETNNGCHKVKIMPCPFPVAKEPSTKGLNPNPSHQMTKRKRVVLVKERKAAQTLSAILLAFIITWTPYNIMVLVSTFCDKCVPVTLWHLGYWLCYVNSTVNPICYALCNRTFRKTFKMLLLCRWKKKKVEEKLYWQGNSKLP

[8] = biological target: Beta-2 adrenergic receptor (Homo sapiens, UniProt P07550); test: DRUGMATRIX: Adrenergic beta2 radioligand binding (ligand: [3H] CGP-12177); format: cell membranes, CHO, Membrane; details: cho; Not Active = under 50% inhibition at 10 µM

Measured: IC50

Chain of Beta-2 adrenergic receptor (P07550 whole entry): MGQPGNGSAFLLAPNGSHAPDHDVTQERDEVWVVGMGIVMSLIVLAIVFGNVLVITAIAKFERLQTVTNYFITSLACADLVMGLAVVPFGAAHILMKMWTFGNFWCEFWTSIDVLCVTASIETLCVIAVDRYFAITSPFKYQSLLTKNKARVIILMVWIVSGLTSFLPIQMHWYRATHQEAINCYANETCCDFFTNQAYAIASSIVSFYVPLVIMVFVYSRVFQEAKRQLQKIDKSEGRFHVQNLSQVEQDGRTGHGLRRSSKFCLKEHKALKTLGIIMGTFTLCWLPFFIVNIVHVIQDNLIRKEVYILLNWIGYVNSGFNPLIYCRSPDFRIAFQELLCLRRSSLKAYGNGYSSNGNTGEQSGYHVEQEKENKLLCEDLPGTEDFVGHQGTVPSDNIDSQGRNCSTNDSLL
Chain of Nitric oxide synthase 1 (P29476 whole entry): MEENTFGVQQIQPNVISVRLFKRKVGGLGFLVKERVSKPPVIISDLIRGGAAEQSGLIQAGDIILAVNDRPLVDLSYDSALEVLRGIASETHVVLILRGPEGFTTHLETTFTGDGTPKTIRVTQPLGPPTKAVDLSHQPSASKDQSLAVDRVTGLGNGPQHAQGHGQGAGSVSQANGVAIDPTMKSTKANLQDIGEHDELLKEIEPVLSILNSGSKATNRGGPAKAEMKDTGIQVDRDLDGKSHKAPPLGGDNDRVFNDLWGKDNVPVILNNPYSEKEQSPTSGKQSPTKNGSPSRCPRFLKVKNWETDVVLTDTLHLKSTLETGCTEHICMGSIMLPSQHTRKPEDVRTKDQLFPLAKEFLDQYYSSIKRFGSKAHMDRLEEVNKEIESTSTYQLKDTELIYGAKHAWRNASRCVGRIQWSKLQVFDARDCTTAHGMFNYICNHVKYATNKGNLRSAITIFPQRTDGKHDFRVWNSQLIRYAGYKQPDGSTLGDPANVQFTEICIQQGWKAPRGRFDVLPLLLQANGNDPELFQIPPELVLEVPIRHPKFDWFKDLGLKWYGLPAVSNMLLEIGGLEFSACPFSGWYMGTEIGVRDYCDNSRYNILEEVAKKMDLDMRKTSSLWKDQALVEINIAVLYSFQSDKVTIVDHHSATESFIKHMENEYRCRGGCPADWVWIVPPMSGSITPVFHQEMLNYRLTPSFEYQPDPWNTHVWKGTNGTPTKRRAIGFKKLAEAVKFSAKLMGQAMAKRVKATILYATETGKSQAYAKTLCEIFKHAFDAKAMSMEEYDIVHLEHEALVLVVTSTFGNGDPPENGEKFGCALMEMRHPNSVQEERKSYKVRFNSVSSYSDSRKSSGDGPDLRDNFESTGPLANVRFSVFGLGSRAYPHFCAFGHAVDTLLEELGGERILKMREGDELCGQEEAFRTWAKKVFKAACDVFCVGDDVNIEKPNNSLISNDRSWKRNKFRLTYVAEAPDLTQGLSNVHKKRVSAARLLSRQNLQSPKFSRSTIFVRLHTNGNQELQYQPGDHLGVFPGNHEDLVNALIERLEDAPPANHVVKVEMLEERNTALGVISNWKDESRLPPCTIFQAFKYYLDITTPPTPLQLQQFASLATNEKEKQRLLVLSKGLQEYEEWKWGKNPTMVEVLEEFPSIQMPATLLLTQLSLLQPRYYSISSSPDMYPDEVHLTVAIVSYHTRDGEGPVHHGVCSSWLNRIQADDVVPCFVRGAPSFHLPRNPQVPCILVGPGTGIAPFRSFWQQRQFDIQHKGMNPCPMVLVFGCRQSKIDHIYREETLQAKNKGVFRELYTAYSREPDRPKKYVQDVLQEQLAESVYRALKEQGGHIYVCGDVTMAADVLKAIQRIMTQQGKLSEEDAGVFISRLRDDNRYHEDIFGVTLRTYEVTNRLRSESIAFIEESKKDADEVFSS

CN/C(=N\CCSCc1nc[nH]c1C)NC#N [CIMETIDINE]
Not Active: all assays above

C[n+]1ccc(-c2cc[n+](C)cc2)cc1.[Cl-].[Cl-] [PARAQUAT DICHLORIDE]
Not Active: all assays above

CCCN(CCC)S(=O)(=O)c1ccc(C(=O)O)cc1 [PROBENECID]
Not Active: all assays above

C#CC1(O)CC[C@H]2[C@@H]3CCC4=CC(=O)CC[C@@H]4[C@H]3CC[C@@]21CC (stereo not given in full) [NORGESTREL]
Not Active: all assays above

CC[C@H]1CN2CCc3cc(OC)c(OC)cc3[C@@H]2C[C@@H]1C[C@H]1NCCc2cc(OC)c(OC)cc21 [EMETINE]
Not Active: all assays above
